# Reference: patent US20230287416A1, “COMBINATORY TREATMENT OF SMA WITH SARNA AND MRNA MODULATORS” (RACTIGEN THERAPEUTICS, priority 2020, published 2023)
# Tested on: SMN2 mRNA
# Test: RT-qPCR of SMN2FL and SMN2 Δ7 mRNA in brain, liver and spinal cord of SMA type III mice
# Assay type: in vivo, mouse
# Description: The combinatory effect of LNP-R6-04M1 with LNP-ASO-10-27 or with Risdiplam were in evaluated in vivo, in SMA type IU mice. Neonatal mice were divided into 10 treatment groups: • Treatment Group 1: administration of LNP-R6-04M1 via ICV injection (injected twice on P1 and P3 respectively, each with 10 ug of LNP-R6-04M1); • Treatment Group 2: administration of LNP-ASO-10-27 via ICV injection (injected twice on P1 and P3 respectively, each with 10 ug of LNP-ASO-10-27); • Treatment Group 3: administration of Risdiplam via IP injection on P1 at a concentration of 0.3 mg/kg; • Treatment Group 4: administration of Risdiplam via IP injection on P1 at a concentration of 1 mg/kg; • Treatment Group 5: administration of Risdiplam via IP injection on P1 at a concentration of 3 mg/kg; • Treatment Group 6: combinatory treatment via administration of LNP-R6-04M1 and LNP-ASO-10-27. LNP-R6-04M1 was administered via ICV injection on P1 (10 ug), while LNP-ASO-10-27 was administered via ICV injection on P3 (10 ug); • Treatment Group 7: combinatory treatment via administration of LNP-ASO-10-27 and LNP-R6-04M1. LNP-ASO-10-27 was administered via ICV injection on P1 (10 ug), while LNP-R6-04M1 was administered via ICV injection on P3 (10 ug); • Treatment Group 8: combinatory treatment of LNP-R6-04M1 and Risdiplam. LNP-R6-04M1 was injected on P1 (10 ug) via ICV injection, and Risdiplam was injected via IP injection on P3 at a concentration of 0.3 mg/kg; • Treatment Group 9: combinatory treatment of LNP-R6-04M1 and Risdiplam. LNP-R6-04M1 was injected on P1 (10 ug) via ICV injection, and Risdiplam was injected via IP injection on P3 at a concentration of 1 mg/kg;
# The SMA type LII mice were treated saline twice on P1 (5 μL) and P3(5 μL) via subcutaneous (SC) injection. P1 and P3 means postnatal day 1 and day3;
# Treatment Group 10: treatment of mice with saline SMN2FL and SMN2 Δ7 mRNA levels were quantified by RT-qPCR in tissues of the brain, liver and spinal cord.
# For RNA isolation from cultured cells, total cellular RNA was isolated from treated cells using an RNeasy Plus Mini kit (Qiagen, Hilden, Germany) according to its manual. To isolated RNA from animal tissues, tissues were harvested and stored at RNA later (AM7021, Thermo Fisher). Total RNA was then isolated using MagPure Total RNA Micro LQ kit (Magen, R6621, China) by auto-pure96 machine (ALLSHENG, China). The resultant RNA (1 μg) was reverse transcribed into cDNA by using a PrimeScript RT kit containing gDNA Eraser (Takara, Shlga, Japan). The resultant cDNA was amplified in an ABI 7500 Fast Real-time PCR System (Applied Biosystems; Foster City, Calif.) using SYBR Premix Ex Taq 11 (Takara, Shlga, Japan) reagents and primers which specifically amplified full-length (SMN2FL) or A7 SMN2 mRNA (SMN2 Δ7) (FIG. 1). The reaction conditions were: 95° C. for 3 seconds (1 cycle) and 60° C. for 30 seconds (40 cycles). Amplification of TBP gene served as an internal control.
# All animal procedures were conducted by certified laboratory personnel using protocols consistent with local and state regulations and approved by the Institutional Animal Care and Use Committee. SMA-like mice created by homozygous knock-out of mouse Smn exon 7 with transgene of human SMN2 (Smn−/−SMN2+/−) as previously described Hsieh-Li et al. (Hsieh-Li, H. M., et al. A mouse model for spinal muscular atrophy. Nature Genet (2000) were obtained from Jackson Laboratories. Tail snips were gathered at postnatal day 0 (P0), and each pup was identified by paw tattooing and genotyped by PCR analysis using a set of 3 specific primers: S1, 5′-[…]-3′, and S2, 5′-[…]-3′ (1,150 bp band for wild type alleles) and S1 and H1, 5′-[…]-3′ (950 bp band for mutant alleles). The PCR products were detected by 1% agarose gel. Severe SMA mice (Smn^−/−, SMN^+/0) were generated. Littermates heterozygous for mouse Smn (Smn1^+/−, SMN2^+/−) were used as controls. […]
# [1] = brain, IP on P1, 0.3 mg/kg (Treatment Group 3)
# [2] = brain, IP on P1, 1 mg/kg (Treatment Group 4)
# [3] = brain, IP on P1, 3 mg/kg (Treatment Group 5)
# [4] = liver, IP on P1, 0.3 mg/kg (Treatment Group 3)
# [5] = liver, IP on P1, 1 mg/kg (Treatment Group 4)
# [6] = liver, IP on P1, 3 mg/kg (Treatment Group 5)
smiles,measurement,setting,value
Cc1cn2nc(-c3cc(=O)n4cc(N5CCNC6(CC6)C5)ccc4n3)cc(C)c2n1 [Risdiplam],"SMN2FL mRNA expression, fold relative to control",[1],1.1 fold
same,"SMN2 Δ7 mRNA expression, fold relative to control",[1],1.0 fold
same,"SMN2FL mRNA expression, fold relative to control",[2],1.3 fold
same,"SMN2 Δ7 mRNA expression, fold relative to control",[2],1.0 fold
same,"SMN2FL mRNA expression, fold relative to control",[3],1.0 fold
same,"SMN2 Δ7 mRNA expression, fold relative to control",[3],1.0 fold
same,"SMN2FL mRNA expression, fold relative to control",[4],1.1 fold
same,"SMN2 Δ7 mRNA expression, fold relative to control",[4],1.0 fold
same,"SMN2FL mRNA expression, fold relative to control",[5],1.5 fold
same,"SMN2 Δ7 mRNA expression, fold relative to control",[5],0.9 fold
same,"SMN2FL mRNA expression, fold relative to control",[6],1.0 fold
same,"SMN2 Δ7 mRNA expression, fold relative to control",[6],1.0 fold
